Reference: patent US20020137929A1, “1 - (3-heterocyclylphenyl) isothiourea, -isourea, -guanidine and -amidine herbicidal agents” (Intellectual Property Department, BASF Aktiengesellschaft, priority 1998, published 2002)

Assays:
ORYSAT (Rice, Tebonnet) = assay: Preemergence herbicidal evaluation; format: in vivo, Oryza sativa, (L.) Tebonnet; conditions: preemergence, rated 4-5 weeks after treatment, 0-9 scale
Outline: (§1)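 Scores (0–9) reflect visual comparison with control plants for stand, vigor, malformation, size and chlorosis. Compound was applied to the soil after sowing, before emergence, as an aqueous acetone spray (about 0.0156–0.500 kg/ha), and cups were kept in a greenhouse for 4–5 weeks.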

[1] = system: IPOHE (Morningglory, Ivyleaf); assay: Preemergence herbicidal evaluation; format: in vivo, Ipomoea hederacea; conditions: preemergence, rated 4-5 weeks after treatment, 0-9 scale
Outline: as §1

CYPIR (Rice Flatsedge) = assay: Postemergence weed control under flooded paddy conditions; format: in vivo, Cyperus iria; conditions: postemergence weeds, rated 3 to 4 weeks after treatment
Outline: (§2)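 Weeds 3 to 5 cm tall and rice seedlings at the 1.5 to 2.5 leaf stage were flooded, with water held 1.5 to 3 cm above the soil. Compounds in 50/50 v/v aqueous/acetone went into the flood water at about 0.0313 to 0.500 kg/ha. Visual 0-9 ratings versus control were made 3 to 4 weeks later.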

ABUTH (Velvetleaf) = assay: Postemergence herbicidal evaluation; format: in vivo, Abutilon theophrasti; conditions: postemergence
Outline: (§3)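 Two-week seedlings sprayed postemergence at 40 psi; formulation: 1:1 acetone/water, 0.5% TWEEN 20; application ≈0.0156–0.500 kg/ha. Greenhouse grow-out, then 0–9 visual scoring at 4–5 weeks.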

[2] = system: ECHORC (Watergrass (Calif.)); assay: Postemergence weed control under flooded paddy conditions; format: in vivo, Echinochloa oryzoides; conditions: postemergence weeds, rated 3 to 4 weeks after treatment
Outline: as §2

[3] = system: CHEAL (Lambsquarters, Common); assay: Preemergence herbicidal evaluation; format: in vivo, Chenopodium album; conditions: preemergence, rated 4-5 weeks after treatment, 0-9 scale
Outline: as §1

SETVI (Foxtail, Green) = assay: Preemergence herbicidal evaluation; format: in vivo, Setaria viridis; conditions: preemergence, rated 4-5 weeks after treatment, 0-9 scale
Outline: as §1

ECHCG (Barnyardgrass) = assay: Preemergence herbicidal evaluation; format: in vivo, Echinochloa crus-galli; conditions: preemergence, rated 4-5 weeks after treatment, 0-9 scale
Outline: as §1

[4] = system: TRZAWR (Wheat, Winter, cv Riband); assay: Postemergence herbicidal evaluation; format: in vivo, Triticum aestivum; conditions: postemergence
Outline: as §3

[5] = system: IPOHE (Morningglory, Ivyleaf); assay: Postemergence herbicidal evaluation; format: in vivo, Ipomoea hederacea; conditions: postemergence
Outline: as §3

MOOVA (Monochoria) = assay: Preemergence weed control under flooded paddy conditions; format: in vivo, Monochoria vaginalis; conditions: rated 3-4 weeks after treatment
Outline: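 Seeds or propagules sown in silt loam kept flooded 1.5-3 cm; compounds in 50/50 acetone/water pipetted into flood water at about 0.0313 to 0.500 kg/ha. Greenhouse; visual 0-9 rating versus untreated control 3-4 weeks after treatment.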

[6] = system: ECHORC (Watergrass (Calif.)); assay: as above; format: in vivo, Echinochloa oryzoides; conditions: rated 3-4 weeks after treatment
Outline: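 Flooded-pot preemergence screen with silt loam and seeds in the upper 0.5 cm. Dose about 0.0313 to 0.500 kg/ha, delivered into flood water; visual 0-9 score after 3 to 4 weeks.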

[7] = system: TRZAWR (Wheat, Winter, cv Riband); assay: Preemergence herbicidal evaluation; format: in vivo, Triticum aestivum; conditions: preemergence, rated 4-5 weeks after treatment, 0-9 scale
Outline: as §1

SMILES: C=CCN1C(=O)C(CC(=O)NOC)SC1=Nc1cc(-n2c(=O)cc(C(F)(F)F)n(C)c2=O)c(F)cc1Cl (stereo not shown) [Compound 85]
- ORYSAT rating (ORYSAT (Rice, Tebonnet); 0.0156 kg/ha): 0.0
- ORYSAT rating (ORYSAT (Rice, Tebonnet); 0.0313 kg/ha): 0.0
- ORYSAT rating (ORYSAT (Rice, Tebonnet); 0.0625 kg/ha): 0.0
- ORYSAT rating (ORYSAT (Rice, Tebonnet); 0.1250 kg/ha): 0.0
- ORYSAT rating (ORYSAT (Rice, Tebonnet); 0.2500 kg/ha): 2.0
- ORYSAT rating (ORYSAT (Rice, Tebonnet); 0.5000 kg/ha): 3.0
- IPOHE rating ([1]; 0.0156 kg/ha): 0.0
- IPOHE rating ([1]; 0.0313 kg/ha): 0.0
- IPOHE rating ([1]; 0.0625 kg/ha): 2.0
- IPOHE rating ([1]; 0.1250 kg/ha): 5.0
- IPOHE rating ([1]; 0.2500 kg/ha): 7.0
- IPOHE rating ([1]; 0.5000 kg/ha): 9.0
- Herbicidal rating CYPIR (CYPIR (Rice Flatsedge); Rate 0.0313 kg/ha): 3.0
- Herbicidal rating CYPIR (CYPIR (Rice Flatsedge); Rate 0.0625 kg/ha): 7.0
- Herbicidal rating CYPIR (CYPIR (Rice Flatsedge); Rate 0.1250 kg/ha): 9.0
- Herbicidal rating CYPIR (CYPIR (Rice Flatsedge); Rate 0.2500 kg/ha): 9.0
- ABUTH herbicidal rating (ABUTH (Velvetleaf); rate 0.0156 kg/ha): 9.0
- ABUTH herbicidal rating (ABUTH (Velvetleaf); rate 0.0313 kg/ha): 9.0
- ABUTH herbicidal rating (ABUTH (Velvetleaf); rate 0.0625 kg/ha): 9.0
- ABUTH herbicidal rating (ABUTH (Velvetleaf); rate 0.1250 kg/ha): 9.0
- Herbicidal rating ECHORC ([2]; Rate 0.0313 kg/ha): 4.0
- Herbicidal rating ECHORC ([2]; Rate 0.0625 kg/ha): 5.0
- Herbicidal rating ECHORC ([2]; Rate 0.1250 kg/ha): 7.0
- Herbicidal rating ECHORC ([2]; Rate 0.2500 kg/ha): 9.0
- CHEAL rating ([3]; 0.0156 kg/ha): 3.0
- CHEAL rating ([3]; 0.0313 kg/ha): 9.0
- CHEAL rating ([3]; 0.0625 kg/ha): 9.0
- CHEAL rating ([3]; 0.1250 kg/ha): 9.0
- CHEAL rating ([3]; 0.2500 kg/ha): 9.0
- CHEAL rating ([3]; 0.5000 kg/ha): 9.0
- SETVI rating (SETVI (Foxtail, Green); 0.0156 kg/ha): 0.0
- SETVI rating (SETVI (Foxtail, Green); 0.0313 kg/ha): 0.0
- SETVI rating (SETVI (Foxtail, Green); 0.0625 kg/ha): 0.0
- SETVI rating (SETVI (Foxtail, Green); 0.1250 kg/ha): 0.0
- SETVI rating (SETVI (Foxtail, Green); 0.2500 kg/ha): 9.0
- SETVI rating (SETVI (Foxtail, Green); 0.5000 kg/ha): 9.0
- ECHCG rating (ECHCG (Barnyardgrass); 0.0156 kg/ha): 0.0
- ECHCG rating (ECHCG (Barnyardgrass); 0.0313 kg/ha): 0.0
- ECHCG rating (ECHCG (Barnyardgrass); 0.0625 kg/ha): 0.0
- ECHCG rating (ECHCG (Barnyardgrass); 0.1250 kg/ha): 0.0
- ECHCG rating (ECHCG (Barnyardgrass); 0.2500 kg/ha): 0.0
- ECHCG rating (ECHCG (Barnyardgrass); 0.5000 kg/ha): 4.0
- TRZAWR herbicidal rating ([4]; rate 0.0156 kg/ha): 3.0
- TRZAWR herbicidal rating ([4]; rate 0.0313 kg/ha): 3.5
- TRZAWR herbicidal rating ([4]; rate 0.0625 kg/ha): 4.5
- TRZAWR herbicidal rating ([4]; rate 0.1250 kg/ha): 5.0
- IPOHE herbicidal rating ([5]; rate 0.0156 kg/ha): 9.0
- IPOHE herbicidal rating ([5]; rate 0.0313 kg/ha): 9.0
- IPOHE herbicidal rating ([5]; rate 0.0625 kg/ha): 9.0
- IPOHE herbicidal rating ([5]; rate 0.1250 kg/ha): 9.0
- MOOVA herbicidal effect rating (MOOVA (Monochoria); 0.0313 kg/ha): 9.0
- MOOVA herbicidal effect rating (MOOVA (Monochoria); 0.0625 kg/ha): 9.0
- MOOVA herbicidal effect rating (MOOVA (Monochoria); 0.1250 kg/ha): 9.0
- MOOVA herbicidal effect rating (MOOVA (Monochoria); 0.2500 kg/ha): 9.0
- ECHORC herbicidal effect rating ([6]; 0.0313 kg/ha): 4.0
- ECHORC herbicidal effect rating ([6]; 0.0625 kg/ha): 5.0
- ECHORC herbicidal effect rating ([6]; 0.1250 kg/ha): 7.0
- ECHORC herbicidal effect rating ([6]; 0.2500 kg/ha): 9.0
- TRZAWR rating ([7]; 0.0156 kg/ha): 0.0
- TRZAWR rating ([7]; 0.0313 kg/ha): 0.0
- TRZAWR rating ([7]; 0.0625 kg/ha): 0.0
- TRZAWR rating ([7]; 0.1250 kg/ha): 3.0
- TRZAWR rating ([7]; 0.2500 kg/ha): 5.0
- TRZAWR rating ([7]; 0.5000 kg/ha): 8.0
